Assay results as given in US20260055114A1, “IMIDAZO[1,2-B]PYRIDAZINE INHIBITORS OF CYCLIN-DEPENDENT KINASES” (H. LEE MOFFITT CANCER CENTER AND RESEARCH INSTITUTE, INC., priority 2022, published 2026).

Experiments:
CDK12 = CDK12 (Homo sapiens, UniProt Q9NYV4); test: Inhibition of cyclin-dependent kinase 12 (% enzyme activity at 1 uM and IC50); format: biochemical; conditions: for remaining activity at 1 µM: 1 uM compound
MDA-MB-231 cell line = test: Antiproliferative activity, MDA-MB-231 cell line (GI50); format: cell-based; conditions: Homo sapiens
CCNK = CCNK degradation (DC50, Dmax); format: cell-based; conditions: for Dmax (%): CCNK degradation

Sequence of CDK12 (Q9NYV4 whole entry): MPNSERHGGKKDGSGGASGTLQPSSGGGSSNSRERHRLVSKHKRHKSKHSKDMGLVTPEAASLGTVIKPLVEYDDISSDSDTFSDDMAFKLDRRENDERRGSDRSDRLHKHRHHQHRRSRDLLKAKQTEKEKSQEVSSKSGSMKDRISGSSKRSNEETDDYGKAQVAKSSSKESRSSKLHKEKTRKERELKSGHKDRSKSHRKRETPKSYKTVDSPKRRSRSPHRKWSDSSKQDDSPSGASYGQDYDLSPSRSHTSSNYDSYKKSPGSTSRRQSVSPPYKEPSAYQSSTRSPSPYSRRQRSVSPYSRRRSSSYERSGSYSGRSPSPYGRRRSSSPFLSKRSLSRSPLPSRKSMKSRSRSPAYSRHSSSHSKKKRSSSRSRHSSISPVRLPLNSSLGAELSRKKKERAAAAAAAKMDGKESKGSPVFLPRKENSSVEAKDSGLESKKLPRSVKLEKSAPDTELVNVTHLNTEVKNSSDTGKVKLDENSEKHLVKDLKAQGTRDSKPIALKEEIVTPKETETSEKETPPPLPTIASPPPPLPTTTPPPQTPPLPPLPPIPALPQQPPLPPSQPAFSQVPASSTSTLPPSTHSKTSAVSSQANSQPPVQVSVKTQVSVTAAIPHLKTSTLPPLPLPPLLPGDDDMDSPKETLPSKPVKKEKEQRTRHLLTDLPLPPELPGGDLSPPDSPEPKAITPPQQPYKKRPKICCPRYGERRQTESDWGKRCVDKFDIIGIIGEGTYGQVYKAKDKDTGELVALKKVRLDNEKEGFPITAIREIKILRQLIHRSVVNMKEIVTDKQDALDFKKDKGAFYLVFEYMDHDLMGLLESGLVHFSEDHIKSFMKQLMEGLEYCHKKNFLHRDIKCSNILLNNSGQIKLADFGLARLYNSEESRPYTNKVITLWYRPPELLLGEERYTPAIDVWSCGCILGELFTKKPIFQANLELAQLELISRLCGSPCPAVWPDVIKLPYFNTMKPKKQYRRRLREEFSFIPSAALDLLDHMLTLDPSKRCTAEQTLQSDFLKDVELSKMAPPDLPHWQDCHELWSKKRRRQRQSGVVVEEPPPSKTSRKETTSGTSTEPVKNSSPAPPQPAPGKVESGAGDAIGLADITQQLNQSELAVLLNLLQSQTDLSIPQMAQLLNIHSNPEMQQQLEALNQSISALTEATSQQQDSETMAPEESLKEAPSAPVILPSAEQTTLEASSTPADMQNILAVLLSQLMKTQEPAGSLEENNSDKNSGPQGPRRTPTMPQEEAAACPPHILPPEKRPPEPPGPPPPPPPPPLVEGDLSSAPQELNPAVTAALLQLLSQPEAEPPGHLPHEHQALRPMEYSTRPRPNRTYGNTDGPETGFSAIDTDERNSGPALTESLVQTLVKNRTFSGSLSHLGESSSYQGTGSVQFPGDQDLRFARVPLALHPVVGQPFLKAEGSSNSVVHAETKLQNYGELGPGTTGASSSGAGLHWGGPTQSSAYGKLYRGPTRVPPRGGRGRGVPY
Sequence of CDK12 (O75909 whole entry partner): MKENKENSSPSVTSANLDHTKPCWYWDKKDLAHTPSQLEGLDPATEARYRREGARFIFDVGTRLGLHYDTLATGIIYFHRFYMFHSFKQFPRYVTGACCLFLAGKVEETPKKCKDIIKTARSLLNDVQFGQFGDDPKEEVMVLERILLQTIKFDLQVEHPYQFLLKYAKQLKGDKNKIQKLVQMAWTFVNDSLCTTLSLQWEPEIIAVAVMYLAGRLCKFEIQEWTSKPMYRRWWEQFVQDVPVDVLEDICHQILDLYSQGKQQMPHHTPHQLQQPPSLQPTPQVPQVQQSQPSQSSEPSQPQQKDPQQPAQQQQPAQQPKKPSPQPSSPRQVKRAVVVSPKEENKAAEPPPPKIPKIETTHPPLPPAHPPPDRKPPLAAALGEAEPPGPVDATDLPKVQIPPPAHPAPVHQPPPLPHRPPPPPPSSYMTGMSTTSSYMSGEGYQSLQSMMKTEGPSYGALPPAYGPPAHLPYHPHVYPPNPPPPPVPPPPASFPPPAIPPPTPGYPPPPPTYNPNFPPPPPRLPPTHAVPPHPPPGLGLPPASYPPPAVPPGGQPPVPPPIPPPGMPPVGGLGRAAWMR

| SMILES | remaining activity at 1 µM (CDK12) | GI50 (MDA-MB-231 cell line) | DC50 (CCNK) | IC50 (CDK12) | Dmax (%) (CCNK) |
| --- | --- | --- | --- | --- | --- |
| Cc1cc(-c2cnc3c(NCc4nc5cccc(Cl)c5[nH]4)cc(N4CCOCC4)nn23)cs1 [Cmpd 85, N-((7-chloro-1H-benzo[d]imidazol-2-yl)methyl)-3-(5-methylthiophen-3-yl)-6-morpholinoimidazo[1,2-b]pyridazin-8-amine] | 73% | 3910 nM | 1200 nM | – | 85% |
| Cc1ccnc2[nH]c(CNc3cc(N4CCOCC4)nn4c(-c5cnn(C)c5)cnc34)nc12 [Cmpd 12, 3-(1-methyl-1H-pyrazol-4-yl)-N-((7-methyl-3H-imidazo[4,5-b]pyridin-2-yl)methyl)-6-morpholinoimidazo[1,2-b]pyridazin-8-amine] | – | 5690 nM | 2100 nM | 1000 nM | 65% |
| Clc1cc2nc(CNc3cc(N4CCOCC4)nn4c(-c5cnn(C6CC6)c5)cnc34)[nH]c2cc1Cl [Cmpd 30, 3-(1-cyclopropyl-1H-pyrazol-4-yl)-N-((5,6-dichloro-1H-benzo[d]imidazol-2-yl)methyl)-6-morpholinoimidazo[1,2-b]pyridazin-8-amine] | 83% | 2120 nM | 3000 nM | – | 70% |
| Cc1cc(-c2cnc3c(NCc4nc5cccc(Cl)c5[nH]4)cc(N4CCN(C)CC4)nn23)cs1 [Cmpd 84, N-((7-chloro-1H-benzo[d]imidazol-2-yl)methyl)-6-(4-methylpipcrazin-1-yl)-3-(5-methylthiophen-3-yl) imidazo[1,2-b]pyridazin-8-amine] | 61% | 2210 nM | 1500 nM | – | 80% |
| Cc1cc(-c2cnc3c(NCc4nc5c(C)ccnc5[nH]4)cc(N4CCOCC4)nn23)cs1 [Cmpd 91, N-((7-methyl-3H-imidazo[4,5-b]pyridin-2-yl)methyl)-3-(5-methylthiophen-3-yl)-6-morpholinoimidazo[1,2-b]pyridazin-8-amine] | 103% | 3940 nM | 10000 nM | – | – |
| CN1CCN(c2cc(NCc3nc4cc(Cl)c(Cl)cc4[nH]3)c3ncc(-c4cnn(C5CC5)c4)n3n2)CC1 [Cmpd 29, 3-(1-cyclopropyl-1H-pyrazol-4-yl)-N-((5,6-dichloro-1H-benzo[d]imidazol-2-yl)methyl)-6-(4-methylpiperazin-1-yl) imidazo[1,2-b]pyridazin-8-amine] | 81% | 1120 nM | 10000 nM | – | – |
| Cc1cc(-c2cnc3c(NCc4nc5cc(Cl)c(Cl)cc5[nH]4)cc(N4CCN(C)CC4)nn23)cs1 [Cmpd 87, N-((5,6-dichloro-1H-benzo[d]imidazol-2-yl)methyl)-6-(4-methylpiperazin-1-yl)-3-(5-methylthiophen-3-yl) imidazo[1,2-b]pyridazin-8-amine] | 82% | 7360 nM | 10000 nM | – | – |
| Cc1noc(C)c1-c1cnc2c(NCc3nc4cc(Cl)c(Cl)cc4[nH]3)cc(N3CCOCC3)nn12 [Cmpd 100, N-((5,6-dichloro-1H-benzo[d]imidazol-2-yl)methyl)-3-(3,5-dimethylisoxazol-4-yl)-6-morpholinoimidazo[1,2-b]pyridazin-8-amine] | 73% | 2030 nM | 10000 nM | 3000 nM | – |
| CC(C)n1cc(-c2cnc3c(NCc4nc5c(F)cccc5[nH]4)cc(N4CCOCC4)nn23)cn1 [Cmpd 27, N-((4-fluoro-1H-benzo[d]imidazol-2-yl)methyl)-3-(1-isopropyl-1H-pyrazol-4-yl)-6-morpholinoimidazo[1,2-b]pyridazin-8-amine] | 52% | 10000 nM | 1600 nM | 1080 nM | 50% |
| CN1CCN(c2cc(NCc3nc4cccc(Cl)c4[nH]3)c3ncc(-c4csc(C#N)c4)n3n2)CC1 [Cmpd 81, 4-(8-(((7-chloro-1/-benzo[d]imidazol-2-yl)methyl)amino)-6-(4-methylpiperazin-1-yl)imidazo[1,2-b]pyridazin-3-yl)thiophene-2-carbonitrile] | 33% | 1920 nM | 300 nM | 647 nM | 80% |
| Cc1ccnc2[nH]c(CNc3cc(N4CCN(C)CC4)nn4c(-c5cnn(C(C)C)c5)cnc34)nc12 [Cmpd 20, 3-(1-isopropyl-1H-pyrazol-4-yl)-N-((7-methyl-3H-imidazo[4,5-b]pyridin-2-yl)methyl)-6-(4-methylpiperazin-1-yl) imidazo[1,2-b]pyridazin-8-amine] | 30% | 6670 nM | 10000 nM | 531 nM | – |
| Cc1cc(-c2cnc3c(NCc4nc5c(F)cccc5[nH]4)cc(N4CCN(C)CC4)nn23)cs1 [Cmpd 93, N-((4-fluoro-1H-benzo[d]imidazol-2-yl)methyl)-6-(4-methylpiperazin-1-yl)-3-(5-methylthiophen-3-yl) imidazo[1,2-b]pyridazin-8-amine] | 36% | 1250 nM | 80 nM | 1220 nM | 80% |
| CN1CCN(c2cc(NCc3nc4c(F)c(F)ccc4[nH]3)c3ncc(-c4csc(C#N)c4)n3n2)CC1 [Cmpd 82, 4-(8-(((4,5-difluoro-1H-benzo[d]imidazol-2-yl)methyl)amino)-6-(4-methylpiperazin-1-yl)imidazo[1,2-b]pyridazin-3-yl)thiophene-2-carbonitrile] | 30% | 1120 nM | 250 nM | 405 nM | 50% |
| Cc1ccnc2[nH]c(CNc3cc(N4CCOCC4)nn4c(-c5cnn(C(C)C)c5)cnc34)nc12 [Cmpd 21, 3-(1-isopropyl-1H-pyrazol-4-yl)-N-((7-methyl-3H-imidazo[4,5-b]pyridin-2-yl)methyl)-6-morpholinoimidazo[1,2-b]pyridazin-8-amine] | 34% | 10000 nM | 10000 nM | 722 nM | – |
| Cc1cc(-c2cnc3c(NCc4nc5c(F)cccc5[nH]4)cc(N4CCOCC4)nn23)cs1 [Cmpd 94, N-((4-fluoro-1H-benzo[d]imidazol-2-yl)methyl)-3-(5-methylthiophen-3-yl)-6-morpholinoimidazo[1,2-b]pyridazin-8-amine] | 70% | 1500 nM | 1000 nM | – | 80% |

Stronger by GI50 (MDA-MB-231 cell line), values ahead:

| remaining activity at 1 µM (CDK12) | GI50 (MDA-MB-231 cell line) | DC50 (CCNK) | IC50 (CDK12) | SMILES | Dmax (%) (CCNK) |
| --- | --- | --- | --- | --- | --- |
| 24% | 425 nM | 260 nM | 473 nM | CN1CCN(c2cc(NCc3nc4c(F)c(F)ccc4[nH]3)c3ncc(-c4ccsc4)n3n2)CC1 [Cmpd 78, N-((4,5-difluoro-1H-benzo[d]imidazol-2-yl)methyl)-6-(4-methylpiperazin-1-yl)-3-(thiophen-3-yl) imidazo[1,2-b]pyridazin-8-amine] | 80% |
| – | 49 nM | 50 nM | 56 nM | Clc1cccc2nc(CNc3cc(NC4CCNCC4)nn4c(-c5ccsc5)cnc34)[nH]c12 [Cmpd 72, N8-((7-chloro-1H-benzo[d]imidazol-2-yl)methyl)-N6-(piperidin-4-yl)-3-(thiophen-3-yl) imidazo[1,2-b]pyridazine-6,8-diamine] | 100% |
| – | 284 nM | 1400 nM | 907 nM | CN1CCN(c2cc(NCc3nc4cc(Cl)c(Cl)cc4[nH]3)c3ncc(-c4cn[nH]c4)n3n2)CC1 [Cmpd 60, N-((5,6-dichloro-1H-benzo[d]imidazol-2-yl)methyl)-6-(4-methylpiperazin-1-yl)-3-(1H-pyrazol-4-yl) imidazo[1,2-b]pyridazin-8-amine] | 100% |
| – | 472 nM | 70 nM | 283 nM | Fc1ccc2[nH]c(CNc3cc(N4CCOCC4)nn4c(-c5cnn(C(F)F)c5)cnc34)nc2c1F [Cmpd 55, N-((4,5-difluoro-1H-benzo[d]imidazol-2-yl)methyl)-3-(1-(difluoromethyl)-1H-pyrazol-4-yl)-6-morpholinoimidazo[1,2-b]pyridazin-8-amine] | 80% |
| – | 168 nM | 340 nM | 4250 nM | Clc1cc2nc(CNc3cc(N4CCOCC4)nn4c(-c5ccsc5)cnc34)[nH]c2cc1Cl [Cmpd 64, N-((5,6-dichloro-1H-benzo[d]imidazol-2-yl)methyl)-6-morpholino-3-(thiophen-3-yl) imidazo[1,2-b]pyridazin-8-amine] | 100% |
| – | 564 nM | 680 nM | 9560 nM | Cn1cc(-c2cnc3c(NCc4nc5cc(Cl)c(Cl)cc5[nH]4)cc(N4CCOCC4)nn23)cn1 [Cmpd 9, N-((5,6-dichloro-1H-benzo[d]imidazol-2-yl)methyl)-3-(1-methyl-1H-pyrazol-4-yl)-6-morpholinoimidazo[1,2-b]pyridazin-8-amine] | 95% |
| – | 207 nM | 80 nM | 300 nM | Clc1cccc2nc(CNc3cc(N4CCOCC4)nn4c(-c5ccsc5)cnc34)[nH]c12 [Cmpd 67, N-((7-chloro-1H-benzo[d]imidazol-2-yl)methyl)-6-morpholino-3-(thiophen-3-yl) imidazo[1,2-b]pyridazin-8-amine] | 85% |
| – | 130 nM | 200 nM | 2440 nM | CC1(C)CN(c2cc(NCc3nc4cc(Cl)c(Cl)cc4[nH]3)c3ncc(-c4cnn(C(F)F)c4)n3n2)CCO1 [Cmpd 48, N-((5,6-dichloro-1H-benzo[d]imidazol-2-yl)methyl)-3-(1-(difluoromethyl)-1H-pyrazol-4-yl)-6-(2,2-dimethylmorpholino) imidazo[1,2-b]pyridazin-8-amine] | 100% |
| – | 247 nM | 470 nM | 1000 nM | CN1CCN(c2cc(NCc3nc4cc(Cl)c(Cl)cc4[nH]3)c3ncc(-c4cnn(C(F)F)c4)n3n2)CC1 [Cmpd 41, N-((5,6-dichloro-1H-benzo[d]imidazol-2-yl)methyl)-3-(1-(difluoromethyl)-1H-pyrazol-4-yl)-6-(4-methylpiperazin-1-yl) imidazo[1,2-b]pyridazin-8-amine] | 100% |
